As a reminder, the IC50 is the midpoint of a concentration-inhibition curve.

A value given as a limit tells only on which side of the number the result lay.

The results in this text go back to patent publication US20230066011A1, “PYRROLOPYRIMIDINE DERIVATIVE, AND PHARMACEUTICAL COMPOSITION FOR PREVENTING OR TREATING PROTEIN KINASE-RELATED DISEASE COMPRISING SAME AS ACTIVE INGREDIENT” (VORONOI CO., LTD., priority 2019, published 2023).

Holding throughout (format): biochemical
The target of one assay is T1, human GST-DYRK1A (Homo sapiens, UniProt Q13627).
T1 construct: purified human GST-DYRK1A (full length, Thermo Scientifics) enzyme; purchased Thermo Scientifics
The assay can be described thus: GST-DYRK1A enzyme inhibition, ADP-Glo kinase assay. The note with it: ATP 10 μM, GST-DYRK1A full length, read-out: DYRK1 IC50. In short, it runs like this:
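Full-length human GST-DYRK1A (10 ng) with 10 μM ATP and specific substrate in 40 mM Tris-HCl pH 7.4, 20 mM MgCl2, 0.5 mg/mL BSA, 50 μM DTT, 1 h at 25 °C. ADP formation read by ADP-Glo luminescence relative to solvent control; IC50 from three data sets.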
On the technique in general: ADP-Glo turns the ADP formed in a reaction into a luminescent signal.

A further assay has as its target T2, human GST-CLK1 (Homo sapiens, UniProt P49759).
T2 construct: purified human GST-CLK1 (129-end, SignalChem) enzyme; purchased SignalChem
The assay can be described thus: GST-CLK1 enzyme inhibition, ADP-Glo kinase assay. The note with it: ATP 10 μM, GST-CLK1 129-end. In short, it runs like this:
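Human GST-CLK1 (129-end, 3 ng) reacted with substrate and 10 μM ATP for 1 h at 25° C in 40 mM Tris-HCl pH 7.4, 20 mM MgCl2, 0.5 mg/mL BSA, 50 μM DTT. ADP-Glo luminescence was normalised to solvent control; IC50 (nM) from 3 data sets.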

The target in another assay is LRRK2 (G2019S) (Homo sapiens, UniProt Q5S007, G2019S). As to the kind of experiment: LRRK2 G2019S enzyme inhibition, ADP-Glo kinase assay. Also noted: purchased SignalChem L10-12GG. The note with it: ATP 25 μM. The procedure: To evaluate an inhibitory activity of the compound according to the present invention against LRRK2, LRRK2 (G2019S), DYRK1, CLK1, and TTK kinases, experiments were performed as follows.
Sequence of LRRK2 (G2019S) (Q5S007 970-2527 G2019S limits assumed): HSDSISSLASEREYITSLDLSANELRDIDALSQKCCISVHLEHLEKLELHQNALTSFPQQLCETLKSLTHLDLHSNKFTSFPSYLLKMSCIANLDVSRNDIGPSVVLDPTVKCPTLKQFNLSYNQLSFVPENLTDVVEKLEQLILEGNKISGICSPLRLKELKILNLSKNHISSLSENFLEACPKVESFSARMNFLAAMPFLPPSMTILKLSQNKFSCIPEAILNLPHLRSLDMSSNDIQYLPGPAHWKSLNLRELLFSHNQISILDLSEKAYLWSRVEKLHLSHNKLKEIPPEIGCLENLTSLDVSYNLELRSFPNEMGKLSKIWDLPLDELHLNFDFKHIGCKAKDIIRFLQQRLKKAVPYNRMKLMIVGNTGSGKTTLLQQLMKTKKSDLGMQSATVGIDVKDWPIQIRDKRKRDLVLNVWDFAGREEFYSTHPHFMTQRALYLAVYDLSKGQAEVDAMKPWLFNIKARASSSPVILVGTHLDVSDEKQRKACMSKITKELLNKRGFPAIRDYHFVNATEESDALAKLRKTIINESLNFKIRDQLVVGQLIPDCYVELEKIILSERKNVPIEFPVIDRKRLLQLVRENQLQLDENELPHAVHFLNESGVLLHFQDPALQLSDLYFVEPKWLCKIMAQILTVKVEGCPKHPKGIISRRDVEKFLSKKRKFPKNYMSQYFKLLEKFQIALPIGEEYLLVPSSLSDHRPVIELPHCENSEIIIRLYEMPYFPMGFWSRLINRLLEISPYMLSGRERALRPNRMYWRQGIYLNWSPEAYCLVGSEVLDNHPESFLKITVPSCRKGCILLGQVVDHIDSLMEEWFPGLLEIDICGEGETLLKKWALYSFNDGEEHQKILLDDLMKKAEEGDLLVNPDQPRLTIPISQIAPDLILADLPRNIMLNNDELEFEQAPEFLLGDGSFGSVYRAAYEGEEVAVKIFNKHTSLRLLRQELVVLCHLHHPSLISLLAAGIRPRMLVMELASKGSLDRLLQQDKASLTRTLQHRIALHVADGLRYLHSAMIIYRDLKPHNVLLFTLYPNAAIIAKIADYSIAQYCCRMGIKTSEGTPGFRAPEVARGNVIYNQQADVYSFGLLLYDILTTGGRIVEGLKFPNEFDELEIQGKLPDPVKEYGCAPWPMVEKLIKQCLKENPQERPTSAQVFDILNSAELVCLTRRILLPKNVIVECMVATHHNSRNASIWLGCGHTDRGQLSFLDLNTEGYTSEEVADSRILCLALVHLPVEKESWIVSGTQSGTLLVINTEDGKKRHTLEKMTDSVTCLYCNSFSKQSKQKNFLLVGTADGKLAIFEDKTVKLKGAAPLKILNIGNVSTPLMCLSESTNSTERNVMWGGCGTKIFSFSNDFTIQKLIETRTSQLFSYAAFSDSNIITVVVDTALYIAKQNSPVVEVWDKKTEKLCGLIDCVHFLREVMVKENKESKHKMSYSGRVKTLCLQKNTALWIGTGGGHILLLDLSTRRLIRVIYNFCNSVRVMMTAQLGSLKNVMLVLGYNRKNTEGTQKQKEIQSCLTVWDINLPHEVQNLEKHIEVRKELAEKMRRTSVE
Each of the Example compounds was reacted with a purified human LRRK2 G2019S (L10-12GG, SignalChem) enzyme to evaluate an ability to inhibit an enzyme using a method as described below. A composition of 40 mM Tris-HCl (pH 7.4), 20 mM MgCl2, 0.5 mg/mL BSA, and 50 μM DTT was used as a reaction buffer, and all reactions of test substances were performed in the reaction buffer. Each of the compounds was diluted […] from a 10 mM DMSO stock using a serial dilution method, and enzyme activities were measured at final compound concentrations of 50, 10, 2, 0.4, 0.08, 0.016, 0.0032, 0.00064, 0.000128, 0.0000256, 0.00000512, and 0.000001024 μM. In the test, purified ATP (25 μM) and an enzyme substrate (0.2 μg) were reacted with a human LRRK2 G2019S (16 ng) enzyme at 25° C. for 2 hours, and the enzyme activities were then determined using an in vitro ADP-Glo™ kinase assay (Promega). An enzyme-activity reaction solution, an ADP-Glo reaction solution, and an enzyme-ability detection solution were reacted at a ratio of 2:2:1 to measure a degree of inhibition of the enzyme activity with luminescence. The degree of inhibition of the enzyme activity according to the treatment concentration of each of the compounds was calculated based on the fluorescence of the enzyme activity of the solvent control which was not treated with the compound. In this case, the concentration of each of the compounds inhibiting 50% of the enzyme activity was determined to be an IC50 (nM) value, and calculated using Prism (Version 5.01; GraphPad) software.

T2 sequence (P49759 129-484 limits assumed): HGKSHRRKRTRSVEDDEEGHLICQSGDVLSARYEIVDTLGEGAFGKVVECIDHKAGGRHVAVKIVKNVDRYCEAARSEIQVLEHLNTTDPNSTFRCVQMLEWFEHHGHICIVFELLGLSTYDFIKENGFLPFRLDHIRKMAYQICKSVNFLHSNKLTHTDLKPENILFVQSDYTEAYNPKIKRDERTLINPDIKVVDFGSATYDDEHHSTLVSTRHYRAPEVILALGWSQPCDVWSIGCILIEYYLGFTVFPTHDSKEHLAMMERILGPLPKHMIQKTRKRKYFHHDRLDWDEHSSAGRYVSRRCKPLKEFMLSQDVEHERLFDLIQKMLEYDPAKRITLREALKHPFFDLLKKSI

As for `COc1cc(S(=O)(=O)N2CCOCC2)ccc1Nc1nc(NCC2CC2)c2cc[nH]c2n1` [Example 31, N^4-(cyclopropylmethyl)-N^2-(2-methoxy-4-(morpholinosulfonyl)phenyl)-7H-pyrrolo[2,3-d]pyrimidine-2,4-diamine 2,2,2-trifluoroacetate], the IC50 on human GST-DYRK1A was 301 to 1000 nM; against human GST-CLK1 it was 301 to 1000 nM; at LRRK2 (G2019S) it was below 100 nM.
As for `COc1cc(S(=O)(=O)N2CCC(N3CCOCC3)CC2)ccc1Nc1nc(NCC2CC2)c2cc[nH]c2n1` [Example 32, N^4-(cyclopropylmethyl)-N^2-(2-methoxy-4-((4-morpholinopiperidin-1-yl)sulfonyl)phenyl)-7H-pyrrolo[2,3-d]pyrimidine-2,4-diamine], the half-inhibitory concentration (IC50) at human GST-DYRK1A is 301 to 1000 nM; against human GST-CLK1, 301 to 1000 nM; against LRRK2 (G2019S), below 100 nM.
As to `COc1cc(S(C)(=O)=O)ccc1Nc1nc(NCC2CC2)c2cc[nH]c2n1` [Example 33, N^4-(cyclopropylmethyl)-N^2-(2-methoxy-4-(methylsulfonyl)phenyl)-7H-pyrrolo[2,3-d]pyrimidine-2,4-diamine], the IC50 is 301 to 1000 nM on human GST-DYRK1A, 301 to 1000 nM against human GST-CLK1 and below 100 nM against LRRK2 (G2019S).
`COCC(C)(C)Nc1nc(Nc2ccc(S(=O)(=O)N3CCOCC3)cc2OC)nc2[nH]ccc12` [Example 34, N^4-(1-methoxy-2-methylpropan-2-yl)-N^2-(2-methoxy-4-(morpholinosulfonyl)phenyl)-7H-pyrrolo[2,3-d]pyrimidine-2,4-diamine]: the half-inhibitory concentration (IC50) is 301 to 1000 nM on human GST-DYRK1A, 301 to 1000 nM against human GST-CLK1 and below 100 nM against LRRK2 (G2019S).
Turning to `COCC(C)(C)Nc1nc(Nc2ccc(S(=O)(=O)N3CCC(N4CCOCC4)CC3)cc2OC)nc2[nH]ccc12` [Example 35, N^4-(1-methoxy-2-methylpropan-2-yl)-N^2-(2-methoxy-4-((morpholinopiperidin-1-yl)sulfonyl)phenyl)-7H-pyrrolo[2,3-d]pyrimidine-2,4-diamine], the 50% inhibitory concentration (IC50) at human GST-DYRK1A was 301 to 1000 nM; at human GST-CLK1 it was 101 to 300 nM; against LRRK2 (G2019S), below 100 nM.
The corresponding values for `COCC(C)(C)Nc1nc(Nc2ccc(S(C)(=O)=O)cc2OC)nc2[nH]ccc12` [Example 36, N^4-(1-methoxy-2-methylpropan-2-yl)-N^2-(2-methoxy-4-(methylsulfonyl)phenyl)-7H-pyrrolo[2,3-d]pyrimidine-2,4-diamine] are 301 to 1000 nM, 301 to 1000 nM and below 100 nM.
In the case of `COc1cc(S(=O)(=O)N2CCOCC2)ccc1Nc1nc(NCC2CCC2)c2cc[nH]c2n1` [Example 37, N^4-(cyclobutylmethyl)-N^2-(2-methoxy-4-(morpholinosulfonyl)phenyl)-7H-pyrrolo[2,3-d]pyrimidine-2,4-diamine], the values for the IC50 on human GST-DYRK1A, against human GST-CLK1 and at LRRK2 (G2019S) were 301 to 1000 nM, 301 to 1000 nM and below 100 nM, respectively.
As to `COc1cc(S(=O)(=O)N2CCC(N3CCOCC3)CC2)ccc1Nc1nc(NCC2CCC2)c2cc[nH]c2n1` [Example 38, N^4-(cyclobutylmethyl)-N^2-(2-methoxy-4-((4-morpholinopiperidin-1-yl)sulfonyl)phenyl)-7H-pyrrolo[2,3-d]pyrimidine-2,4-diamine 2,2,2-trifluoroacetate], the half-inhibitory concentration (IC50) at human GST-DYRK1A was 301 to 1000 nM; against human GST-CLK1 it was 301 to 1000 nM; against LRRK2 (G2019S), below 100 nM.
Regarding `COc1cc(S(C)(=O)=O)ccc1Nc1nc(NCC2CCC2)c2cc[nH]c2n1` [Example 39, N^4-(cyclobutylmethyl)-N^2-(2-methoxy-4-(methylsulfonyl)phenyl)-7H-pyrrolo[2,3-d]pyrimidine-2,4-diamine 2,2,2-trifluoroacetate], the 50% inhibitory concentration (IC50) at human GST-DYRK1A is 301 to 1000 nM; against human GST-CLK1, 301 to 1000 nM; on LRRK2 (G2019S), below 100 nM.
For `COc1cc(S(=O)(=O)N2CCOCC2)ccc1Nc1nc(NCC2CCCC2)c2cc[nH]c2n1` [Example 40, N^4-(cyclopentylmethyl)-N^2-(2-methoxy-4-(morpholinosulfonyl)phenyl)-7H-pyrrolo[2,3-d]pyrimidine-2,4-diamine 2,2,2-trifluoroacetate], the IC50 on human GST-DYRK1A, against human GST-CLK1 and against LRRK2 (G2019S) was 301 to 1000 nM in each case.
Turning to `COc1cc(S(=O)(=O)N2CCC(N3CCOCC3)CC2)ccc1Nc1nc(NCC2CCCC2)c2cc[nH]c2n1` [Example 41, N^4-(cyclopentylmethyl)-N^2-(2-methoxy-4-((4-morpholinopiperidin-1-yl)sulfonyl)phenyl)-7H-pyrrolo[2,3-d]pyrimidine-2,4-diamine 2,2,2-trifluoroacetate], the IC50 at human GST-DYRK1A was 301 to 1000 nM; against human GST-CLK1, 301 to 1000 nM; against LRRK2 (G2019S), below 100 nM.
For `COc1cc(S(C)(=O)=O)ccc1Nc1nc(NCC2CCCC2)c2cc[nH]c2n1` [Example 42, N^4-(cyclopentylmethyl)-N^2-(2-methoxy-4-(methylsulfonyl)phenyl)-7H-pyrrolo[2,3-d]pyrimidine-2,4-diamine 2,2,2-trifluoroaceate], the IC50 at human GST-DYRK1A is 301 to 1000 nM; against human GST-CLK1 it was 301 to 1000 nM; on LRRK2 (G2019S), 101 to 300 nM.
As for `CC(C)CNc1nc(Nc2ccc(C(=O)N3CCOCC3)c3c2OCCO3)nc2[nH]ccc12` [Example 44, (8-((4-(isobutylamino)-7H-pyrrolo[2,3-d]pyrimidin-2-yl)amino)-2,3-dihydrobenzo[b][1,4]dioxin-5-yl)(morpholino)methanone], the IC50 was 301 to 1000 nM at human GST-DYRK1A, 301 to 1000 nM against human GST-CLK1 and below 100 nM against LRRK2 (G2019S).
Take `CC(C)Nc1nc(Nc2ccc(C(=O)N3CCOCC3)c3c2OCCO3)nc2[nH]ccc12` [Example 45, (8-((4-(isopropylamino)-7H-pyrrolo[2,3-d]pyrimidin-2-yl)amino)-2,3-dihydrobenzo[b][1,4]dioxin-5-yl)(morpholino)methanone 2,2,2-trifluoroacetate]: the half-inhibitory concentration (IC50) at human GST-DYRK1A is 301 to 1000 nM; against human GST-CLK1, 301 to 1000 nM; against LRRK2 (G2019S) it was below 100 nM.
Turning to `COCCNc1nc(Nc2ccc(C(=O)N3CCOCC3)c3c2OCCO3)nc2[nH]ccc12` [Example 46, (8-((4-((2-methoxyethyl)amino)-7H-pyrrolo[2,3-d]pyrimidin-2-yl)amino)-2,3-dihydrobenzo[b][1,4]dioxin-5-yl)(morpholino)methanone 2,2,2-trifluoroacetate], the 50% inhibitory concentration (IC50) was 301 to 1000 nM at human GST-DYRK1A, 301 to 1000 nM against human GST-CLK1 and below 100 nM against LRRK2 (G2019S).
With `O=C(c1ccc(Nc2nc(NC3CCC3)c3cc[nH]c3n2)c2c1OCCO2)N1CCOCC1` [Example 47, (8-((4-(cyclobutylamino)-7H-pyrrolo[2,3-d]pyrimidin-2-yl)amino)-2,3-dihydrobenzo[b][1,4]dioxin-5-yl)(morpholino)methanone], the IC50 on human GST-DYRK1A is 301 to 1000 nM; against human GST-CLK1, 301 to 1000 nM; on LRRK2 (G2019S), below 100 nM.
Turning to `O=C(c1ccc(Nc2nc(NC3CCCC3)c3cc[nH]c3n2)c2c1OCCO2)N1CCOCC1` [Example 48, (8-((4-(cyclopentylamino)-7H-pyrrolo[2,3-d]pyrimidin-2-yl)amino)-2,3-dihydrobenzo[b][1,4]dioxin-5-yl)(morpholino)methanone], the IC50 on human GST-DYRK1A was 301 to 1000 nM; against human GST-CLK1, 301 to 1000 nM; against LRRK2 (G2019S), below 100 nM.
For `O=C(c1ccc(Nc2nc(NC3CCCCC3)c3cc[nH]c3n2)c2c1OCCO2)N1CCOCC1` [Example 49, (8-((4-(cyclohexylamino)-7H-pyrrolo[2,3-d]pyrimidin-2-yl)amino)-2,3-dihydrobenzo[b][1,4]dioxin-5-yl)(morpholino)methanone 2,2,2-trifluoroacetate], the 50% inhibitory concentration (IC50) on human GST-DYRK1A is 301 to 1000 nM; on human GST-CLK1 it was 301 to 1000 nM; on LRRK2 (G2019S), below 100 nM.
Take `O=C(c1ccc(Nc2nc(NC3CCOCC3)c3cc[nH]c3n2)c2c1OCCO2)N1CCOCC1` [Example 52, morpholino(8-((4-((tetrahydro-2H-pyran-4-yl)amino)-7H-pyrrolo[2,3-d]pyrimidin-2-yl)amino)-2,3-dihydrobenzo[b][1,4]dioxin-5-yl)methanone 2,2,2-trifluoroacetate]: the IC50 was 301 to 1000 nM on human GST-DYRK1A, 301 to 1000 nM against human GST-CLK1 and below 100 nM against LRRK2 (G2019S).
